# Experiments:
# CYP2A6 = biological target: T1, CYP2A6 (Homo sapiens, UniProt P11509); test: CYP2A6 inhibition, coumarin to Umbelliferone fluorescence assay in microsomes; assay type: biochemical; settings: substrate coumarin 0.003 mM, 60 min at 37° C.; read-out: CYP2A6 inhibitor activity IC50
# T1 construct: purchased BD Biosciences Gentest, USA
# T1 sequence (P11509 1-494): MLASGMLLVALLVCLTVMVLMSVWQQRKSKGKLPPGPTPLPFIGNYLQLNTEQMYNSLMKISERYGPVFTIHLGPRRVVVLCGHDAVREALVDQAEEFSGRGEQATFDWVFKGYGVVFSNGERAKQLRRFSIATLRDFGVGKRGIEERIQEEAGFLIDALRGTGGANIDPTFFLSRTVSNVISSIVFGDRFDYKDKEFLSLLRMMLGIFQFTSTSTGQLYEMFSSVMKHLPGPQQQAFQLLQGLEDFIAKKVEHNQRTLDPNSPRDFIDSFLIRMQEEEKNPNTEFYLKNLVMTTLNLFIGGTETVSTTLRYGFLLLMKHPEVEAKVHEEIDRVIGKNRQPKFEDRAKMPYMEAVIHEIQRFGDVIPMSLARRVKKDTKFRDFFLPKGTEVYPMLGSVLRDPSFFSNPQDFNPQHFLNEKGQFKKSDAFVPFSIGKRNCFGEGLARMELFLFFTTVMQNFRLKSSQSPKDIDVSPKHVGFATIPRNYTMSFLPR
# Experimental: Test compounds that inhibit the activity of CYP2A6 are identified by using the same principle as described in Example 28, first paragraph.
# A test compound (details see list below) was incubated with CYP2A6 in the presence of a cytochrome P450 reductase. CYP2A6 and P450 reductase were employed in form of microsomes (BD Biosciences Gentest, USA). Microsomes were used which contained 2 pmoles CYP2A6 and an amount of NADPH-P450 reductase corresponding to cytochrome c reductase activity of 87 nmole/(min×mg protein). […] The concentration of the standard substrate coumarin was 0.003 mM.
# The samples were analysed spectrofluorometrically according to the procedure described in Example 28.
# CYP2A13 = biological target: T2, CYP2A13 (Homo sapiens, UniProt Q16696); test: CYP2A13 inhibition, coumarin to 7-hydroxy-coumarin (Umbelliferone) fluorescence assay in microsomes
# T2 sequence (Q16696 1-494): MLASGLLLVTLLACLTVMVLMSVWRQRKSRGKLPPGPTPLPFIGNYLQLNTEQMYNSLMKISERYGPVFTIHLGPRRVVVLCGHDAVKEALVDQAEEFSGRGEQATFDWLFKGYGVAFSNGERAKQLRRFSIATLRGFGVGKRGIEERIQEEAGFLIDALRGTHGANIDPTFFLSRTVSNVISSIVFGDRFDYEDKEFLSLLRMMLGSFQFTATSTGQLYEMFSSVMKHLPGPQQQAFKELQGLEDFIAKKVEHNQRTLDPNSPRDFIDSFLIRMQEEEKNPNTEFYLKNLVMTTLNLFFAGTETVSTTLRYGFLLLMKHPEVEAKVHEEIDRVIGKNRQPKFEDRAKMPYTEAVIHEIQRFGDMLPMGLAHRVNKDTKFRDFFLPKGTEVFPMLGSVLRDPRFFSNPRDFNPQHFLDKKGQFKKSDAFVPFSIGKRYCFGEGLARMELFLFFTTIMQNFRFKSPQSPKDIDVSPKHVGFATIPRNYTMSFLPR
# Experimental: Compounds that inhibit the activity of CYP2A13 are identified by using a standard reaction established for the enzyme. A known substrate is coumarin, and the product of the enzymatic reaction is 7-hydroxy-coumarin (Umbelliferone) which is strongly fluorescent. When a compound is added to the standard reaction and the formation of Umbelliferone is decreased, the compound is identified as an inhibitor, which can also be a competitive substrate of the enzyme. The compound is used at various concentrations and the concentration-dependent decrease in Umbelliferone formation allows to determine the concentration where the activity of the enzyme is reduced to the 50% level (IC50 value).
# A test compound (details see Table 1) was incubated with CYP2A13 in the presence of a cytochrome P450 reductase. CYP2A13 and P450 reductase were employed in form of microsomes. […] Preferably, the two enzymes are coexpressed in the same insect cells and microsomes prepared which contain both enzymes. […] An MOI of 4 for recombinant CYP2A13 baculovirus combined with an MOI of 3.5 for recombinant P450 reductase baculovirus routinely produced microsomes with considerable activity.
# Microsomes were used which contained 7 pmoles CYP2A13. […] The concentration of the standard substrate coumarin was 0.006 mM. […] The mixture was incubated for 10 min at 37° C. prior to the initiation of the enzymatic reaction by the addition of 0.005 ml of a solution of 50 mM NADPH in water. The final total volume was 0.2 ml, which is suitable for microtiter plate measurements. The samples were incubated for 60 min at 37° C. After 60 min, the enzymatic reaction was stopped by the addition of 0.02 ml cold 50% trichloroacetic acid (TCA) and incubated at 4° C. for 15 min. 0.005 ml of a solution of 50 mM NADPH in water was added to the control reaction which corresponds to the reaction without test compound and without NADPH, and as a consequence, no Umbelliferone was formed. Denatured proteins and other insoluble parts were separated by centrifugation (10 min, 560×g, room-temperature).
# The samples were analysed spectrofluorometrically which allows to detect the formation of Umbelliferone as the enzymatic product of coumarin at an excitation wavelength of 340 nm and an emission wavelength of 480 nm.
# Human CYP2B6 = biological target: T3, Human CYP2B6 (Homo sapiens, UniProt P20813); test: Inhibition of human CYP2B6, 7-ethoxy-4-trifluoromethyl-coumarin fluorescence assay in microsomes; assay type: biochemical; settings: substrate 7-ethoxy-4-trifluoromethyl-coumarin 6 μM, 40 min at 37° C.; read-out: CYP2B6 inhibitor activity IC50
# T3 construct: made in house; host or cells: Sf9 insect cells, recombinant baculoviruses (coexpression)
# T3 sequence (P20813 1-491): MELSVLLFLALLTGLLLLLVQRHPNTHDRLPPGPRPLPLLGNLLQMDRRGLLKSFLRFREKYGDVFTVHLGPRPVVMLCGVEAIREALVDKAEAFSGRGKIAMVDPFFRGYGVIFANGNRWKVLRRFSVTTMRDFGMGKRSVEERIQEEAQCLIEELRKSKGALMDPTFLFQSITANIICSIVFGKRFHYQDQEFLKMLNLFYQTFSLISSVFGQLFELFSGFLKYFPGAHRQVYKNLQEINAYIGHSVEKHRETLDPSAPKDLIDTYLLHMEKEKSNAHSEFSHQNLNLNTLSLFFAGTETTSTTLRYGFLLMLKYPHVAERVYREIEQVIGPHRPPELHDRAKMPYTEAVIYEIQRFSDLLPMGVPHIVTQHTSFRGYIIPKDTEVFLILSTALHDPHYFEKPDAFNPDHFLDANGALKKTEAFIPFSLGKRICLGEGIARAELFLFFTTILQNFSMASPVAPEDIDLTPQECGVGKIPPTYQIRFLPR
# Experimental: Test compounds that inhibit the activity of CYP2B6 are identified by using the same principle as described in Example 28, first paragraph.
# A test compound (details see Table 3) was incubated with CYP2B6 in the presence of a cytochrome P450 reductase. CYP2B6 and P450 reductase are produced using recombinant baculoviruses and co-expressing the two proteins in Sf9 insect cells as described in Example 28. Alternatively, microsomes containing CYP2B6 and the reductase are commercially available (BD Biosciences Gentest, USA). Microsomes were used which contained 1.5 pmoles CYP2B6. Potassium phosphate buffer final concentration was 100 mM, (1M stock, pH 7.4). […] The concentration of the standard substrate 7-ethoxy-4-trifluoromethyl-coumarin was 6 μM. […] The samples were incubated for 40 min at 37° C.
Structure (SMILES),IC50 (CYP2A6),IC50 (CYP2A13),IC50 (Human CYP2B6)
"c1ncc2c(n1)CCCCCCCCCC2 [Compound ID 1, 5,6,7,8,9,10,11,12,13,14-decahydrocyclododeca[d]pyrimidine]",9 µM,0.3 µM,2.7 µM
"c1nc2c(o1)CCCCCCCCCC2 [Compound ID 15, 4,5,6,7,8,9,10,11,12,13-decahydrocyclododeca[d]oxazole]",53 µM,2 µM,5.4 µM
"CC/C=C\CCn1ccnc1 [Compound ID 23, (Z)-1-(hex-3-enyl)-1H-imidazole]",7 µM,3.4 µM,2.2 µM
"C=CCCCCn1ccnc1 [Compound ID 41, 1-(hex-5-enyl)-1H-imidazole]",,5.9 µM,1.9 µM
"CC(C)=CCC/C(C)=C\Cn1ccnc1 [Compound ID 44, 1-(3,7-dimethylocta-2,6-dienyl)-1H-imidazole]",6 µM,6.4 µM,0.1 µM
"C=CCCCCCc1cnccn1 [Compound ID 57, 2-(hept-6-enyl)pyrazine]",,10.2 µM,0.6 µM

# Reference: patent US20100113460A1, “Organic Compounds” (Givaudan SA, priority 2007, published 2010)
